Results published in US20250090541A1, “Methods for Treating Neurodegenerative Disorders” (Praetego Inc, priority 2022, published 2025).

Tests used:
Assay type in all cases: in vivo
[1] = Mortality and apparent toxicity, 20 weeks in 3×Tg mice; settings: 1 and 5 mg/kg in drinking water
Protocol: (§1) Female and male 3×Tg mice (MMRRC #034830) were treated daily for 20 weeks with PTG-670 trihydrochloride at 1 and 5 mg/kg in drinking water starting at 19 weeks of age (˜5 months old) (just before cognitive deficits onset).
• 1—Control (B6129SF2/J Jax 101045)), N=7 male, N=7 female, • 2—3×Tg, N=7 male, N=7 female, • 3—3×Tg+PTG-670 1 mg/kg drinking water, N=7 male, N=7 female, • 4—3×Tg+PTG-670 5 mg/kg drinking water, N=7 male, N=7 female.
No mice died during the course of the study.

3×Tg mice [2] = test: Tactile response (manual von Frey filaments), 3×Tg mice; settings: 3×Tg mice did not develop tactile allodynia
Protocol: as §1
(§2) Tactile and thermal responses were assessed at 5 and 11 weeks. Motor nerve conduction velocity (NCV) was measured at 8, 12 and 20 weeks after treatment. Learning and memory were assessed using the Barnes maze test and the object recognition test at 6, 12, and 18 weeks of treatment. Corneal nerves were imaged by corneal confocal microscopy (CCM) at week 5, 11 and 17. Data represent male and female results combined, unless specified, mean±sem.

3×Tg mice [3] = test: Thermal response to heat stimuli, 3×Tg mice; settings: 3×Tg mice did not develop significant hypoalgesia
Protocol: as §1, §2

3×Tg mice [4] = test: Motor nerve conduction velocity (NCV), 3×Tg mice; settings: male 3×Tg mice, 20 weeks time point
Protocol: as §1, §2
Male 3×Tg mice develop significant (p<0.05) nerve conduction velocity slowing by 9 months of age (20 weeks time point) (data not shown). The slowing of NCV was prevented by treatment with PTG-670 at both 1 and 5 mg/kg in drinking water.

3×Tg mice [5] = test: Barnes maze learning abilities, 3×Tg mice
Protocol: as §1, §2
Learning abilities assessed using the Barnes maze were impaired in 3×Tg mice in both male and female around 6-7 months, conform with the literature (Stover et al., 2015).

3×Tg mice [6] = test: Barnes maze long-term memory, 3×Tg mice
Protocol: as §1, §2
Using the Barnes maze test, long-term memory was assessed between week 12 and 18 of treatment.

3×Tg mice [7] = test: Object Recognition test, 3×Tg mice; settings: for short term episodic memory deficits in Object recognition test: 5 mg/kg
Protocol: as §1, §2

4-hydroxynonal (4-HNE) = test: Lipid peroxidation, 4-HNE Oxiselect Elisa in hippocampus homogenates, 3×Tg mice; settings: 5 mg/kg
Protocol: as §1
Lipid peroxidation was assessed using the 4-Hydroxynonal (4-HNE) Oxiselect Elisa in hippocampus homogenates.

Drebrin = test: Western blot of hippocampus, 3×Tg mice: Drebrin
Protocol: as §1
(§3) Mouse Hippocampus were processed for Western blotting analysis of Drebrin (actin binding protein in dendritic spines, role in neuronal growth, a decrease is a contributing factor in the pathogenesis of memory disturbance), PSD95 (a post-synaptic protein, role in the regulation of excitatory synapse maturity), and NeuN (neuronal nuclear antigen, biomarker for neurons, decrease=neuronal loss) (FIG. 12). The reduced drebrin levels in the hippocampus of 3×Tg mice was ameliorated by 20 weeks of treatment with PTG-670 at 5 mg/kg in drinking water only for female mice. Similarly, levels of PSD95 protein tend to decrease in 3×Tg mice and to be ameliorated by 5 mg/kg PTG670.

PSD95 = test: Western blot of hippocampus, 3×Tg mice: PSD95
Protocol: as §1, §3

NeuN = test: Western blot of hippocampus, 3×Tg mice: NeuN
Protocol: as §1, §3

For `Cc1ncc(CN2CCCCCC2)c(-c2ncc[nH]2)c1O` [PTG-670, 5-(azepan-1-ylmethyl)-4-(1H-imidazol-2-yl)-2-methylpyridin-3-ol], the apparent toxicity [1] was “No apparent toxicity was observed”, the “responses to von Frey filaments” value (3×Tg mice [2]) was “did not affect mice responses to von Frey filaments” and the “responses to heat stimuli” value (3×Tg mice [3]) was “did not affect the 3×Tg mice responses to heat stimuli”. The “slowing of NCV” value (3×Tg mice [4]; 1 mg/kg in drinking water) was “prevented”, the “slowing of NCV” value (3×Tg mice [4]; 5 mg/kg in drinking water) was “prevented” and the “learning abilities in Barnes maze” value (3×Tg mice [5]; female 3×Tg mice, 1 mg/kg for 18 weeks) was “significantly improved learning abilities to level similar to control”. For the same molecule, the “learning deficits in Barnes maze” value (3×Tg mice [5]; male 3×Tg mice) was “did not improve learning deficits”, the “long-term memory impairment in Barnes maze” value (3×Tg mice [6]; female 3×Tg mice, 1 mg/kg, by week 18 of treatment) was “significantly (p<0.05) prevented” and the “memory abilities in Barnes maze” value (3×Tg mice [6]; male 3×TG mice) was “No difference in memory abilities or effect”. The “short term episodic memory deficits in Object recognition test” value (3×Tg mice [7]; after 6 weeks of treatment) was “significantly (p<0.05) ameliorated”, the “short term episodic memory deficits in Object recognition test” value (3×Tg mice [7]; after 18 weeks of treatment) was “significantly (p<0.05) ameliorated” and the “short-term episodic memory (recognition index)” value (3×Tg mice [7]; FIG. 10 legend, 6 to 18 weeks of treatment) was “alleviated”. For the same molecule, the “4-HNE levels in hippocampus” value (4-hydroxynonal (4-HNE)) was “tend to reduce HNE levels”, the “reduced drebrin levels in hippocampus” value (Drebrin; female mice only, 5 mg/kg in drinking water, 20 weeks) was “ameliorated” and the Drebrin in hippocampus (Drebrin; male 3×Tg mice) was “No differences were observed”. The “levels of PSD95 protein in hippocampus” value (PSD95; 5 mg/kg, tendency) was “ameliorated”, the PSD95 in hippocampus (PSD95; male 3×Tg mice) was “No differences were observed” and the “neuronal loss (NeuN) in hippocampus” value (NeuN; female mice only, 5 mg/kg) was “significantly (p<0.05) elevated”. For the same molecule, the NeuN in hippocampus (NeuN; male 3×Tg mice) was “No differences were observed”.
